Data as given in patent publication US9980943B2, “Methods of treating muscular dystrophy” (BOARD OF REGENTS OF THE NEVADA SYSTEM OF HIGHER EDUCATION, …, priority 2013, dated 2018).

Columns and labels:
Type in all cases: cell-based, mouse
[1] = test system: β-galactosidase in CMV-LacZ C2C12 myotubes; assay: CMV-LacZ secondary screen in C2C12 myotubes (β-Gal stabilizing assay); conditions: for CMV-LACZ in Myotubes (β-galactosidase activity relative to DMSO): CMV-LacZ C2C12 myotubes, 96-well format
In short: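 First, C2C12 myoblasts were transfected with a linearized CMV-LACZ vector and clonal lines selected by FDG β-gal assay. Then cells were exposed to compounds at 0.5, 1, 5, 10, 20 and 40 μM in 96-well format, two replicates each, and β-gal measured.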

[2] = test system: α7 integrin (LacZ reporter in α7βgal+/− myoblasts); assay: Myoblast α7+/LacZ integrin FDG assay (Burkin assay in myoblasts, 96-well); conditions: α7+/LacZ myoblasts, 96-well
[3] = test system: α7 integrin (LacZ reporter in α7+/LacZ myotubes); assay: Myotube α7 integrin FDG assay (Burkin assay in myotubes, 96-well); conditions: myotubes
[4] = 5 uM, C2C12 CMV-LacZ myotubes, fold relative to DMSO
[5] = 10 uM, C2C12 CMV-LacZ myotubes, fold relative to DMSO
[6] = 20 uM, C2C12 CMV-LacZ myotubes, fold relative to DMSO
[7] = 40 uM, C2C12 CMV-LacZ myotubes, fold relative to DMSO

SMILES | CMV-LACZ in Myotubes, signal relative to DMSO [1, 4] | CMV-LACZ in Myotubes, signal relative to DMSO [1, 5] | CMV-LACZ in Myotubes, signal relative to DMSO [1, 6] | CMV-LACZ in Myotubes, signal relative to DMSO [1, 7] | Burkin Assay in Myoblasts, value relative to DMSO ([2]; 0.5 uM) | Burkin Assay in Myoblasts, value relative to DMSO ([2]; 1 uM) | Burkin Assay in Myoblasts, value relative to DMSO ([2]; 5 uM) | Burkin Assay in Myoblasts, value relative to DMSO ([2]; 10 uM) | Burkin Assay in Myoblasts, value relative to DMSO ([2]; 20 uM) | Burkin Assay in Myoblasts, value relative to DMSO ([2]; 40 uM) | Burkin Assay in Myotubes (signal relative to DMSO) ([3]; 0.5 uM) | Burkin Assay in Myotubes (signal relative to DMSO) ([3]; 1 uM) | Burkin Assay in Myotubes (signal relative to DMSO) ([3]; 5 uM) | Burkin Assay in Myotubes (signal relative to DMSO) ([3]; 10 uM) | Burkin Assay in Myotubes (signal relative to DMSO) ([3]; 20 uM) | Burkin Assay in Myotubes (signal relative to DMSO) ([3]; 40 uM) | Burkin Assay in Myoblasts, signal relative to DMSO ([2]; 0.5 uM) | Burkin Assay in Myoblasts, signal relative to DMSO ([2]; 1 uM) | Burkin Assay in Myoblasts, signal relative to DMSO ([2]; 5 uM) | Burkin Assay in Myoblasts, signal relative to DMSO ([2]; 10 uM) | further results
COc1ccccc1N(C(=O)CNC(=O)c1ccco1)C(C(=O)NC1CCCCC1)c1ccncc1 (centres unmarked) [MLS001220669-01] | 0.8274 | 0.7701 | 1.0114 | 1 | 1 | 0.9426 | 0.9016 | 0.9605 | 0.8701 | 0.7613 | 0.9722 | 0.978 | 1.0117 | 1.038 | 1.003 | 1.011 |  |  |  |  | 
O=C(Cn1cccc1C(=O)c1ccccc1)NCCCc1ccccc1 [MLS001110618-01] | 0.8954 | 0.9336 | 1.0555 | 0.4765 |  |  |  |  |  |  |  |  |  |  |  |  | 0.9525 | 1.03 | 0.9228 | 1.005 | Burkin Assay in Myoblasts, signal relative to DMSO ([2]; 20 uM): 0.9713; Burkin Assay in Myoblasts, signal relative to DMSO ([2]; 40 uM): 1.083; Burkin Assay in Myotubes, α7 integrin LacZ reporter signal relative to DMSO ([3]; 0.5 uM): 0.9526; Burkin Assay in Myotubes, α7 integrin LacZ reporter signal relative to DMSO ([3]; 1 uM): 1.067; Burkin Assay in Myotubes, α7 integrin LacZ reporter signal relative to DMSO ([3]; 5 uM): 1.114; Burkin Assay in Myotubes, α7 integrin LacZ reporter signal relative to DMSO ([3]; 10 uM): 1.252; Burkin Assay in Myotubes, α7 integrin LacZ reporter signal relative to DMSO ([3]; 20 uM): 1.0381; Burkin Assay in Myotubes, α7 integrin LacZ reporter signal relative to DMSO ([3]; 40 uM): 0.9463
COC(=O)C1=NNC2(C)C(=O)N(c3ccc(C)cc3)C(=O)C12 (centres unmarked) [MLS000767227-01] | 1.024 | 1.1 | 0.9975 | 1.1815 |  |  |  |  |  |  |  |  |  |  |  |  | 1.025 | 0.8073 | 0.8577 | 0.9107 | Burkin Assay in Myoblasts, signal relative to DMSO ([2]; 20 uM): 0.9133; Burkin Assay in Myoblasts, signal relative to DMSO ([2]; 40 uM): 0.9283; Burkin Assay in Myotubes, α7 integrin LacZ reporter signal relative to DMSO ([3]; 0.5 uM): 0.8593; Burkin Assay in Myotubes, α7 integrin LacZ reporter signal relative to DMSO ([3]; 1 uM): 0.8998; Burkin Assay in Myotubes, α7 integrin LacZ reporter signal relative to DMSO ([3]; 5 uM): 0.9645; Burkin Assay in Myotubes, α7 integrin LacZ reporter signal relative to DMSO ([3]; 10 uM): 0.844; Burkin Assay in Myotubes, α7 integrin LacZ reporter signal relative to DMSO ([3]; 20 uM): 0.7775; Burkin Assay in Myotubes, α7 integrin LacZ reporter signal relative to DMSO ([3]; 40 uM): 0.9434
COc1ccc(C(=O)N/C(=C/c2cccnc2)C(=O)N2CCN(C)CC2)cc1OC [MLS001140657-01] |  |  |  |  | 0.9918 | 0.962 | 0.9528 | 0.8768 | 0.8568 | 0.7978 | 1.034 | 0.9506 | 1.083 | 0.9981 | 0.9948 | 0.9708 |  |  |  |  | CMV-LACZ in Myotubes (β-galactosidase activity relative to DMSO) ([1]; 5 uM): 1.053; CMV-LACZ in Myotubes (β-galactosidase activity relative to DMSO) ([1]; 10 uM): 1.046; CMV-LACZ in Myotubes (β-galactosidase activity relative to DMSO) ([1]; 20 uM): 1.05; CMV-LACZ in Myotubes (β-galactosidase activity relative to DMSO) ([1]; 40 uM): 1.075
O=[N+]([O-])c1cccc(S(=O)(=O)N2CCN(S(=O)(=O)N3CCOCC3)CC2)c1 [MLS000912614-01] | 1.018 | 1.166 | 0.97 | 1.012 | 0.9551 | 1.088 | 0.9534 | 0.94 | 0.7382 | 0.7798 | 1.042 | 1.024 | 1.103 | 1.055 | 0.775 | 0.7855 |  |  |  |  | 
COc1ccc(-c2cc(COc3ccccc3)on2)cc1 [MLS000695955-01] |  |  |  |  |  |  |  |  |  |  |  |  |  |  |  |  |  |  |  |  | fold induction at 5 µM ([1]; Mus musculus, C2C12, read-out: CMV-LACZ in Myotubes, signal relative to DMSO, 5 uM, C2C12 CMV-LacZ myotubes, fold relative to DMSO): 0.789; fold induction at 10 µM ([1]; Mus musculus, C2C12, read-out: CMV-LACZ in Myotubes, signal relative to DMSO, 10 uM, C2C12 CMV-LacZ myotubes, fold relative to DMSO): 0.896; fold induction at 20 µM ([1]; Mus musculus, C2C12, read-out: CMV-LACZ in Myotubes, signal relative to DMSO, 20 uM, C2C12 CMV-LacZ myotubes, fold relative to DMSO): 0.992; fold induction at 40 µM ([1]; Mus musculus, C2C12, read-out: CMV-LACZ in Myotubes, signal relative to DMSO, 40 uM, C2C12 CMV-LacZ myotubes, fold relative to DMSO): 0.93; fold induction at 0.5 µM ([2]; Mus musculus, Myoblast, 48 h, 0.5 uM, read-out: Burkin Assay in Myoblasts, signal relative to DMSO): 0.902; fold induction at 1 µM ([2]; Mus musculus, Myoblast, 48 h, 1 uM, read-out: Burkin Assay in Myoblasts, signal relative to DMSO): 0.871; fold induction at 5 µM ([2]; Mus musculus, Myoblast, 48 h, 5 uM, read-out: Burkin Assay in Myoblasts, signal relative to DMSO): 1.08; fold induction at 10 µM ([2]; Mus musculus, Myoblast, 48 h, 10 uM, read-out: Burkin Assay in Myoblasts, signal relative to DMSO): 1.06; fold induction at 20 µM ([2]; Mus musculus, Myoblast, 48 h, 20 uM, read-out: Burkin Assay in Myoblasts, signal relative to DMSO): 0.961; fold induction at 40 µM ([2]; Mus musculus, Myoblast, 48 h, 40 uM, read-out: Burkin Assay in Myoblasts, signal relative to DMSO): 1.03; fold induction at 0.5 µM ([3]; Mus musculus, Myotube, 0.5 uM, read-out: Burkin Assay in Myotubes, α7 integrin LacZ reporter signal relative to DMSO): 0.945; fold induction at 1 µM ([3]; Mus musculus, Myotube, 1 uM, read-out: Burkin Assay in Myotubes, α7 integrin LacZ reporter signal relative to DMSO): 1.03; fold induction at 5 µM ([3]; Mus musculus, Myotube, 5 uM, read-out: Burkin Assay in Myotubes, α7 integrin LacZ reporter signal relative to DMSO): 1.15; fold induction at 10 µM ([3]; Mus musculus, Myotube, 10 uM, read-out: Burkin Assay in Myotubes, α7 integrin LacZ reporter signal relative to DMSO): 1.32; fold induction at 20 µM ([3]; Mus musculus, Myotube, 20 uM, read-out: Burkin Assay in Myotubes, α7 integrin LacZ reporter signal relative to DMSO): 1.23; fold induction at 40 µM ([3]; Mus musculus, Myotube, 40 uM, read-out: Burkin Assay in Myotubes, α7 integrin LacZ reporter signal relative to DMSO): 1.39
COc1ccc(C)cc1NC(=O)c1ccc2c(O)c(S(=O)(=O)c3ccccc3)c(=O)[nH]c2c1 [MLS001122718-01] | 0.8862 | 0.9662 | 0.9567 | 0.89 |  |  |  |  |  |  |  |  |  |  |  |  | 1.1056 | 1.041 | 1.033 | 0.9092 | Burkin Assay in Myoblasts, signal relative to DMSO ([2]; 20 uM): 0.9923; Burkin Assay in Myoblasts, signal relative to DMSO ([2]; 40 uM): 0.9332; Burkin Assay in Myotubes, α7 integrin LacZ reporter signal relative to DMSO ([3]; 0.5 uM): 1.011; Burkin Assay in Myotubes, α7 integrin LacZ reporter signal relative to DMSO ([3]; 1 uM): 0.9435; Burkin Assay in Myotubes, α7 integrin LacZ reporter signal relative to DMSO ([3]; 5 uM): 1.069; Burkin Assay in Myotubes, α7 integrin LacZ reporter signal relative to DMSO ([3]; 10 uM): 1.106; Burkin Assay in Myotubes, α7 integrin LacZ reporter signal relative to DMSO ([3]; 20 uM): 1.089; Burkin Assay in Myotubes, α7 integrin LacZ reporter signal relative to DMSO ([3]; 40 uM): 0.9804
COc1ccccc1-c1coc2c(CN3C(C)CCCC3C)c(O)ccc2c1=O (centres unmarked) [MLS001163140-01] | 1.029 | 1.061 | 0.9159 | 1.19 | 1.019 | 1.217 | 0.9966 | 1.098 | 0.935 | 0.9829 | 0.9236 | 1.035 | 0.9282 | 1.1264 | 0.9651 | 1.011 |  |  |  |  | 
